In patent publication US20030148929A1, “Nucleic acid carriers and pharmaceutical compositions for gene therapy” (Hisamitsu Pharmaceutical Co., Inc., priority 1998, published 2003):

Tests used:
[1] = test system: Balb/c mice; test: Survival rate of mice singly administered with high doses of carrier; format: in vivo; conditions: pDBA, single
Procedure: The survival rate of mice was investigated in the manner described below when high doses of pDBA solution were directly administered to the mice.
pDBA was dissolved in physiological saline solution to prepare pDBA solutions having different concentrations. The pDBA solutions were administered to Balb/c mice intravenously through tail veins, and their symptoms were observed. pDBAs obtained in Synthetic Examples 1-7 (all listed in Table 2) were used. […]

[2] = test system: HepG2 cells; test: Introduction of FITC-labeled oligonucleotide into HepG2 cells using pDBA, flow cytometer; format: cell-based; conditions: HepG2, 4 hours, FIG. 11 and 12
Procedure: An oligonucleotide labeled with FITC (20 mer, Pharmacia Corporation) was used to assess the efficiency of introduction into cells for the. complexes of the oligonucleotide with various pDBAs.
HepG2 cells were inoculated onto a 12-well petri dish at 1×10^5 cells/well and cultured for 24 hours. The FITC-labeled oligonucleotide was used, and pDBAs obtained in Synthetic Examples 3 and 5 were used as the nucleic acid carriers. Complexes were prepared from these three kinds (pDBAs and the FITC-labeled oligonucleotide) such that the ratios of oligonucleotide/pDBA were 1/1, 1/5, and 1/10 (w/w). The complex solutions were added to the HepG2 cells; and after culturing for 4 hours, the cells were washed with PBS(−) twice. After removal of PBS(−), the cells were separated from the dish using a cell dissociation solution (SIGMA-Aldrich Corporation) and the cell suspensions were subjected to measurement with a flow cytometer (FACS Calibur available from Becton Dickinson). The results are shown in FIG. 11 (oligonucleotide/pDBA=1/5(w/w)), where M1 represents the results from control experiment and M2 represents the results from the experiment using the FITC-labeled oligonucleotide).

[3] = test system: guinea pigs (Hartley line); conditions: guinea pig, in vivo
[4] = test system: HepG2 cells; test: Gene introduction into HepG2 cells with plasmid A/pDBA complexes, activity of the expressed luciferase; format: cell-based; conditions: plasmid/pDBA weight ratios 1/1 to 1/20 (w/w), FIG. 3
Procedure: A solution of a plasmid encoding the luciferase gene (about 5.25 kb: PicaGene control vector into which the luciferase gene was previously introduced (Toyo Ink Mfg. Co. Ltd.) that will be referred to as “plasmid A” hereinafter) and a solution of a nucleic acid carrier were prepared, respectively, at twice the desired concentration. Approximately 30 minutes prior to administration, the nucleic acid carrier solution was added dropwise to the plasmid solution with stirring to prepare a plasmid/(nucleic acid carrier) complex solution. DMEM medium (Sigma-Aldrich Corporation) was used as solvent. Specifically, a 25 μg/ml plasmid solution was prepared such that a plasmid/(nucleic acid carrier) complex solution having a plasmid concentration of 12.5 μg/ml would be used as an administration sample.
HepG2 cells were inoculated onto a 12-well multi-well plate (Coaster Inc.) at 1×10^5 cells/well one day prior to testing. […] The luciferase activity of the supernatant was measured on a Luciferase Assay System (Toyo Inc. Mfg. Co. Ltd.) using a luminometer (Lumit LB9501 available from Berthold Pty Ltd.). The protein concentration of the centrifuged supernatant was measured in a Protein Assay Kit (Bio-Rad Laboratories, Inc.) using a microplate reader (Rainbow Thermo available from Tecan U.S., Inc.). […]

[5] = test system: Balb/c mice; test: Gene introduction into mice with plasmid A/pDBA complexes given intravenously through tail veins, luciferase activity in tissues; format: in vivo; conditions: for luciferase activity in the liver: plasmid/pDBA 1/7 (w/w)
Procedure: A solution of plasmid A and a solution of pDBA were prepared, respectively, at twice the desired concentration. Approximately 30 minutes prior to administration, the pDBA solution was added dropwise to the plasmid solution with stirring to prepare a plasmid/(nucleic acid carrier) complex solution. DMEM medium was used as solvent. Specifically, a 50 μg/ml plasmid solution was prepared such that a plasmid/(nucleic acid carrier) complex solution having a plasmid concentration of 25.0 μg/ml would be used as an administration sample.
Complex solutions were prepared from pDBA obtained in Example 3 and plasmid A such that the weight ratio of plasmid/pDBA was 1/7 (w/w) and were administered to Balb/c mice intravenously through tail veins. The dose of plasmid A per mouse was 12.5 μg/0.5 ml. Two days and twenty one days after administration the luciferase activity was measured in the lung, the liver and the spleen whereby gene introduction to the respective were determined.
Complex solutions were prepared from pDBA obtained in Synthetic Example 3 and plasmid A such that different weight ratios of plasmid to pDBA (plasmid/pDBA=1/0, 1/1, 1/5, 1/10, and 1/20) were realized; and they were administered to Balb/c mice intravenously through tail veins.
Two days after administration the luciferase activity found in the liver was measured whereby gene introduction to the respective mouse tissues were determined.
Complexes were prepared from five kinds of pDBA obtained in Synthetic Examples 1, 2, 3, 4, and 5 (all listed in Table 2) and plasmid A such that the weight ratio of plasmid/pDBA was 1/5 (w/w); and they were administered to mice intravenously through tail veins. Two days after administration the luciferase activity in the liver was measured.
Similarly to Example 4, Plasmid A/pDBA complex solutions that were prepared were administered to Balb/C mice (8-week old male) intravenously through tail veins. Gene expression in the liver after administration was assessed by measuring the luciferase activity. pDBA obtained in Synthetic Example 3 in Table 2 was used to prepare a complex solution such that plasmid/pDBA was equal to 1/5 (w/W), which was used in the administration described above.

Poly(DL-2,4-diaminobutyric acid) Acetate [Synthetic Example 4]
Survival rate (survival number/case number) ([1]; dose 3.1 mg/kg iv, listed as 62, 3.1 mg/kg): 3/3 | Survival rate (survival number/case number) ([1]; dose 6.3 mg/kg iv, listed as 62, 6.3 mg/kg): 2/3

Poly(DL-2,4-diaminobutyric acid) Acetate [Synthetic Example 5]
Survival rate (survival number/case number) ([1]; dose 3.1 mg/kg iv, listed as 170, 3.1 mg/kg): 3/3 | Survival rate (survival number/case number) ([1]; dose 6.3 mg/kg iv, listed as 170, 6.3 mg/kg): 0/3

Poly(DL-2,4-diaminobutyric acid) Acetate [Synthetic Example 1]
cellular introduction / incorporation of the FITC-labeled oligonucleotide [2]: little incorporation of oligonucleotide | Survival rate (survival number/case number) ([1]; dose 1.6 mg/kg iv): 3/3 | Survival rate (survival number/case number) ([1]; dose 3.1 mg/kg iv, listed as 12, 3.1 mg/kg): 3/3 | Survival rate (survival number/case number) ([1]; dose 6.3 mg/kg iv, listed as 12, 6.3 mg/kg): 3/3 | Survival rate (survival number/case number) ([1]; dose 12.5 mg/kg iv): 0/3

Poly(DL-2,4-diaminobutyric acid) Acetate [Synthetic Example 2]
Survival rate (survival number/case number) ([1]; dose 3.1 mg/kg iv, listed as 26, 3.1 mg/kg): 3/3 | Survival rate (survival number/case number) ([1]; dose 6.3 mg/kg iv, listed as 26, 6.3 mg/kg): 3/3

Poly(DL-2,4-diaminobutyric acid) Acetate [Synthetic Example 3]
immunogenicity [3]: very low | gene expression (activity of the expressed luciferase) [4]: as the quantity of pDBA relative to plasmid increases, so does the gene expression | luciferase activity in the liver ([5]; 21 days after iv administration, FIG. 5B): maintained even 21 days after administration | duration of gene expression in the liver after a single administration ([5]; Balb/C mice, iv tail vein, plasmid A, plasmid/pDBA 1/5 (w/W), FIG. 8): ≥ 7 months | gene expression (luciferase activity in the liver) ([5]; two days after iv administration, plasmid/pDBA 1/0, 1/1, 1/5, 1/10, 1/20, FIG. 6): As the quantity of pDBA relative to the plasmid increases, the gene expression has the tendency to increase | luciferase activity in the liver ([5]; two days after iv administration, compared with plasmid only, FIG. 5A): markedly high luciferase activity | Survival rate (survival number/case number) ([1]; dose 3.1 mg/kg iv, listed as 49, 3.1 mg/kg): 3/3 | Survival rate (survival number/case number) ([1]; dose 6.3 mg/kg iv, listed as 49, 6.3 mg/kg): 3/3

Poly(DL-2,4-diaminobutyric acid) Acetate [Synthetic Example 7]
Survival rate (survival number/case number) ([1]; dose 3.1 mg/kg iv, listed as 348, 3.1 mg/kg): 1/3 | Survival rate (survival number/case number) ([1]; dose 6.3 mg/kg iv, listed as 348, 6.3 mg/kg): 0/3

Poly(DL-2,4-diaminobutyric acid) Acetate [Synthetic Example 6]
Survival rate (survival number/case number) ([1]; dose 3.1 mg/kg iv, listed as 278, 3.1 mg/kg): 3/3 | Survival rate (survival number/case number) ([1]; dose 6.3 mg/kg iv, listed as 278, 6.3 mg/kg): 0/3
